According to article PMC11232398, “Antimalarial activity of cecropin antimicrobial peptides derived from Anopheles mosquitoes” (Antimicrobial Agents and Chemotherapy, 2024):
Read-outs that look alike come from different tables or passages of the source.

What was measured:
[1] = system: healthy erythrocytes (human RBCs)
Method: Hemolysis assays were performed using human RBCs according to previous reports ([38]). Briefly, serial dilutions of peptides were incubated with 2% hematocrit RBCs (in PBS) at 37°C for three different time points (15, 30, and 60 min) in triplicates. After incubation, the RBCs were centrifuged for 10 min at 1,000 × g and the absorbance of the supernatants at 540 nm was read by a spectrophotometer to assess the level of the released hemoglobin. Maximum hemolysis was determined by substituting the sample with 1% Triton X-100, which completely lyses the cells. […] Hemolysis of peptides was calculated using the following formula: Hemolysis (%) = (A540 of peptide- A540 of PBS) * 100/A540 of Triton X-100. Two independent tests with three technical replicates were performed for each hemolysis assay.

[2] = system: Plasmodium falciparum 3D7; experiment: Transmission electron microscope analysis of parasite morphology; type: cell-based; conditions: TEM
Method: 3D7 strain parasites with parasitemia of 3% ~ 5% at a hematocrit of 2% were planted in 12-well plates, 3 mL/well. A 40-µM concentration of An-cecB or 200 µM An-cecB-1 was added and incubated for 30 min or 60 min. PBS was used as a control.
After incubation, the parasites were washed three times with ICM, and the electron microscope fixative solution (provided by the company) was added to keep the parasites clumped for 2 hours at room temperature. Finally, the samples were sent to a commercial company at 4°C for transmission electron microscope analysis.

[3] = system: P. falciparum 3D7 (sensitive strain); experiment: In vitro antimalarial activity, 3-day inhibition assay; type: cell-based, Plasmodium falciparum; conditions: Giemsa smears
Method: Blood stages of the laboratory clones P. falciparum 3D7 (sensitive strain), P. falciparum 803 (artemisinin-resistant strain), and P. falciparum Dd2 (chloroquine-resistant strain) were cultured in vitro according to the method of Trager and Jensens with minor modifications ([37]). Briefly, cultures were maintained in O-positive human erythrocytes (RBCs) as host cells at 2% hematocrit and maintained in complete medium (CM) [RPMI-1640 culture medium supplemented with NaHCO3 (2 mg/mL), hypoxanthine (50 µg/mL), HEPES (5.96 mg/mL), albumax II (1%), and gentamicin (40 µg/mL)]. The cultures were diluted to 1% parasitemia and 2% hematocrit in CM and incubated in a humidified atmosphere with 5% O2, 5% CO2, and 90% N2 at 37°C. Prior to experiments, the cultures were highly synchronized for ring stages using 5% sorbitol twice at a 40-h interval. Briefly, ring stage cultures were centrifuged and the pellet was washed once in incomplete medium (ICM, RPMI-1640 without addition). Then, the pellet was resuspended in 5% sorbitol and incubated at 37°C for 10 min. After incubation, the suspension was centrifuged and the pellet was washed once and resuspended in medium. The development of the parasite was observed using light microscopy, and parasitemia was determined by counting at least 10,000 RBCs on Giemsa’s solution-stained thin blood smears.
Highly synchronous ring stage parasites were used to investigate the in vitro antimalarial activity of the peptides. For preliminary screening of in vitro antimalarial activity, a 3-day inhibition assay was used to test the antimalarial activity of An-cecA, An-cecB, and An-cecC. […] For IC50 assay, a series of concentrations of peptides were added to the parasite culture. The concentrations of An-cecB were 5, 15, 20, 25, 30, 35, and 40 µM, while those of An-cecB-1 were 20, 30, 40, 50, 60, 70, 80, and 90 µM. After 72 hours of incubation, the antimalarial effects of peptides were estimated. Thin blood films stained with Giemsa’s solution were counted under a microscope. The parasitemia of cultures treated with peptides was compared with that of control. IC50 was calculated by GraphPad Prism.

[4] = system: methyl-β-cyclodextrin-treated RBCs; experiment: Hemolytic activity on cholesterol-depleted erythrocytes; type: cell-based, human; conditions: RBCs treated with 7.5 mM methyl-β-cyclodextrin for 2 hours at 37°C
Description: Cholesterol is the main component of the RBC membrane and is important for maintaining its stability ([39]). Plasmodium falciparum infection efficiently depletes the red blood cells of cholesterol, which renders […] membranes susceptible to lysis ([40]). Therefore, methyl-β-cyclodextrin treatment was used to simulate the RBC cholesterol depletion caused by infection with Plasmodium. RBCs were washed once and then resuspended with PBS at 0.5% hematocrit. After treatment with the indicated concentration (7.5 mM) of methyl-β-cyclodextrin (Sigma) in RPMI for 2 hours at 37°C, the treated RBCs were washed with PBS and hemolysis assays were performed as described above. Two independent tests with five technical replicates were performed for each hemolysis assay.

[5] = system: P. falciparum 3D7 ring, trophozoite and schizont stages; experiment: Stage-specific parasite inhibition assay; type: cell-based, Plasmodium falciparum; conditions: 40 µM for 12 hours at ring, trophozoite or schizont stage; reinvasion parasitemia at 50 hpi and after 1:40 dilution and 4 days
Method: The activity of An-cecB against different blood stage parasites was evaluated. Parasites were exposed to An-cecB at a lethal concentration of 40 µM for 12 hours at the ring stage [[…] (hours post invasion)], trophozoite stage (17–29 hpi), and schizont stage (29–41 hpi) (Fig. 2a). […] Parasites were then washed and cultured for 4 days […].
To analyze the stage-specific parasite inhibition, highly synchronized ring-stage parasites of the 3D7 strain were cultured in 48-well plates with a starting parasitemia of 0.5% ~ 1% at a hematocrit of 2%. The tested peptide at a concentration of 40 µM was added to ring stage parasites (5 hpi), trophozoites (17 hpi), and schizonts (29 hpi). After treatment for 12 hours, the parasites were washed three times to remove the peptide and the re-invaded parasites (50 hpi) were analyzed. The parasitemia (50hpi) was diluted 1:40 by new RBCs and cultured for a further 4 days. CM was used as a blank control. Parasitemia was counted under a microscope.

[6] = system: Plasmodium berghei (ANKA); type: in vivo; conditions: for Inhibition (%) of P. berghei growth: parasitemia on day 4, BALB/c mice
Method: The in vivo antimalarial activity of peptides was evaluated using a 4-day suppressive test in P. berghei-infected mouse model mice ([44]). The mice were divided into five groups of six mice. Donor mice were infected with 200 µL of P. berghei parasite inoculum by intraperitoneal injection. Parasitized blood was collected from the tail vein of donor mice and diluted with 0.9% sodium chloride solution. Mice were then infected with saline suspension of 1 × 10^7 parasitized erythrocytes (0.2 mL) by intraperitoneal injection (Day0). Four hours after infection, each of the three groups of mice was treated with peptide by intraperitoneal injection at daily doses of 10, 25, and 50 mg/kg for 4 consecutive days. Positive control mice were treated with chloroquine at daily doses of 10 mg/kg and negative control mice with normal saline. On day 4 (96 hours post infection), the parasitemia of each mouse was determined under a light microscope by examination of Giemsa’s solution-stained thin blood smears prepared from mouse tail blood ([28]). The mean parasitemia in each group of mice was used to calculate the % suppression for each dose using the following formula:
%suppression = (parasitemia of negative control − parasitemia of test) * 100/parasitemia of negative control.
The antimalarial activity of the peptides was determined from the ratio of the percentage of parasite reduction in treated and negative control groups ([44]). Results were expressed as median (range) values.

[7] = 40 µM An-cecB or 200 µM An-cecB-1, total 20 / 22

Sequence: APRWKFGKRLEKLGRNVFRAA KKALPVIAGYKAL-NH2 [An-cecB]
- hemolysis rate ([1]; 10 µM): less than 2%
- hemolysis rate ([1]; 20 µM): less than 2%
- hemolysis rate ([1]; 40 µM): less than 5%
- Normal (number of parasites) ([2]; 40 µM An-cecB or 200 µM An-cecB-1, 30 or 60 min, total 20 (An-cecB), 22 (An-cecB-1)): 7
- Disintegration (number of parasites) [2, 7]: 3
- Parasite disoriented (number of parasites) [2, 7]: 4
- Parasite membrane dissolution (number of parasites) [2, 7]: 7
- Parasite shrunken (number of parasites) [2, 7]: 9
- Vacuole formation (number of parasites) [2, 7]: 3
- inhibition rate ([3]; 50 µM peptide, 72 h, ring stage, 1% parasitemia, 2% hematocrit): 100%
- IC50 ([3]; 3D7, 72 h incubation, GraphPad Prism, two independent assays, three technical replicates): 12.4 µM
- hemolysis of cholesterol-depleted erythrocytes [4]: significantly higher than that of controls
- activity against different blood stage parasites [5]: All parasite stages were killed
- Inhibition (%) of P. berghei growth ([6]; 10 mg/kg daily i.p. for 4 consecutive days): 0.63%
- Inhibition (%) of P. berghei growth ([6]; 25 mg/kg daily i.p. for 4 consecutive days): 5.12%
- mortality of infected mice in the 4-day suppressive test ([6]; in vivo): all infected mice died before the end of the experiment
